Results from patent US6321750A, “Condom lubricants with zinc salts as anti-viral additives” (priority 1999, dated 2001).
“Also recorded” adds a separate entry of the source. Like-named read-outs stand apart in the source and are kept apart here.

Assays:
vagina = assay: Irritation test in shallow region of the vagina (volunteer); format: in vivo, human
Excerpt: In all examples, the test subjects were a monogamous married couple, free of genital herpes and all other known sexually transmitted viruses.

[1] = system: genitals (both persons, during intercourse); assay: Irritation test of lubricant during intercourse / human volunteers; format: in vivo
Excerpt: Subsequently, the gel formulation was applied topically and used as a sexual lubricant during intercourse. Both people wiped off the excess with a tissue after intercourse, but neither person showered or washed off the lubricant until the following day. It caused no irritation to either person.

HIV-1 = assay: High-titer HIV infectivity test (two-step incubation, p24 ELISA); format: cell-based; settings: for HIV infectivity: high-titer stock
Method: The initial set of HIV tests were carried out at Biotech Research Laboratories (Rockville, Md.). The HIV-1 viral isolate and H-9 cell line were originally supplied by Robert Gallo of the NCI.
In a first set of tests, 20 mg of zinc acetate powder (ZnAc, MW 183.4) was mixed in 1 ml RPMI cell culture medium (Whittaker Corp.). This 2% (w/v) salt mixture contained 7 mg/ml elemental Zn. […] Therefore, a small quantity of HCl was added until the mixture became clear; the pH was about 5.5. The Zn concentration was reduced by half (and the pH was raised somewhat) when an equal volume (1 ml) of cell-free high-titer HIV-1 viral stock was added. The zinc/virus mixture was stirred and incubated for 2 hours at 37° C. (i.e., normal body temperature).
Following this first incubation step, the zinc/virus mixtures were diluted at 1:10, 1:30, and 1:100 ratios using culture medium, and aliquots were added to equal volumes of culture media containing H-9 lymphocytes that had been pretreated overnight with 2 μg/ml Polybreen. The lymphocyte mixtures were incubated for three hours at 37° C.; zinc concentrations during this step were 180, 60, and 18 μg/ml for the 1:10, 1:30, and 1:100 dilutions.
The cell aliquots were then washed twice, using culture medium, to remove free p24 proteins that are present in the initial viral stock. Such proteins will skew ELISA readings if not removed by washing. Cells were then resuspended in fresh medium containing 10% fetal calf serum (FCS) and cultured for 20 days. During this period, each tube was periodically sampled by hand-mixing the tube, withdrawing 100 μl of liquid from the top, and testing the sample for p24 antigens using ELISA assays.
A positive control was used at each dilution. Viral aliquots not treated with zinc were identically diluted, mixed with lymphocytes, cultured, and tested. Negative controls were also run, in which H-9 cells were plated and grown in the absence of any virus or zinc; these provided background levels that vary slightly from day to day, depending on factors such as spectrophotometer calibrations and rinsing conditions.

HIV [2] = assay: HIV infectivity tests with zinc acetate 1.5% (diluted and undiluted viral stocks, p24 ELISA); format: cell-based, HIV-1
Excerpt: The tests described above, in Example 8, used an undiluted high-titer viral stock, which contained at least ten million infectious viral particles per ml. That concentration can be achieved in a laboratory only by special culturing, purification, and concentration techniques, and it is vastly higher than would actually occur in the ejaculate of an HIV-infected person (especially someone who is not in the end stages of the disease, and who might pose a significant risk of transmitting the virus to an unknowing sexual partner).
These tests used serial dilutions of the viral stocks, at ranges from 1:10 to 1:10,000. To create the 1:10 dilution, 500 μl of viral stock was mixed with 4.5 ml of RPMI medium. Subsequent dilutions added 9 ml of RPMI medium to 1 ml from the preceding dilution.
A 2 ml aliquot from each dilution was mixed with an equal volume of 3% ZnAc dissolved in sterile distilled water; after mixing, the zinc concentration was 5.3 mg/ml Zn. These mixtures were incubated for 2 hours, then diluted with culture medium at 1:30, 1:100, and 1:1000 to reduce the toxicity of the zinc to lymphocytes. Four ml of lymphocytes were mixed with 4 ml of each zinc/virus mixture. The zinc/virus/cell mixtures were incubated at 37° C. for 3 hours; zinc concentrations were 88, 27, and 2.7 μg/ml in the 30, 100, and 1000 dilutions.
Following the 3 hour incubation, the cells were washed twice in RPMI medium and resuspended in fresh medium containing 10% FCS. Each solution was inoculated (2 ml; estimated minimum 2×10^5 cells per well) into each of three wells in a 12-well plate and cultured for 27 days, with periodic sampling and measuring of p24 antigens.
Positive controls used 1:1000 dilutions of viral stock mixed with zinc-free RPMI. These controls were consistently highly infectious, even though their concentrations were 100× lower than the 1:10 mixtures in which infectivity was eliminated by zinc treatment. Other positive controls were tested at up to 100,000× dilutions; these were highly infective in two out of the three plates tested.
While carrying out the viral dilution tests, tests were also performed using 2 ml of 3% ZnAc solution in distilled water mixed with 2 ml aliquots of undiluted viral stock. The zinc/virus mixtures were incubated for 2 hours, diluted with RPMI at 1:100 and 1:1000 ratios, and mixed with lymphocytes for three hours; zinc concentrations were 27 and 2.7 μg/ml. The cells were washed twice, inoculated into 12 well plates as described above, and cultured for 27 days.

HIV [3] = assay: HIV precipitation test; settings: 2% ZnAc with equal volume of undiluted viral stock
Method: Precipitation tests using HIV were also carried out Biotech Research Laboratories, using 2% ZnAc which was mixed with an equal volume of undiluted viral stock, incubated for 24 hours, and centrifuged at 1500 rpm in a tabletop centrifuge for 5 minutes. The supernatant was sampled ([…]) and serially diluted by medium, at 1:10 followed by 2× dilutions (1:20, 1:40, 1:80, etc) to a maximum dilution of 1:10240. Each dilution was analyzed spectrophotometrically to determine the concentration of viruses suspended in solution. After sampling, each tube was hand-mixed and incubated for 24 hours. The solution near the top of the tube was sampled again, serially diluted, and tested using the ELISA assay. The tube was hand-mixed again, incubated for three more days, and sampled again to obtain Day 5 values.

[4] = cited from earlier work
several cell lines = assay: Zinc toxicity in several cell lines; settings: read-out: concentration at which toxicity began to appear in mild form, all comparable
[5] = Acidity tests: pH of 5% w/v zinc salt solutions; settings: 5% w/v in distilled deionized water

With Zinc acetate the “irritation, vagina” value (vagina; dissolved in (distilled) water alone) was “unpleasant tingling or mild burning sensation; also recorded: vaginal irritation”, the “irritation, vagina / female genitals” value (vagina; gel in K-Y Lubricating Jelly, about 5% w/v, passive test) was “no tingling, burning, or other unpleasant sensation” and the irritation during intercourse ([1]; gel in K-Y Lubricating Jelly, about 5% w/v) was “no irritation; also recorded: Neither of these salts caused any irritation”. The “irritation of gel / genital lubricant formulations” value ([1]; in gel or genital lubricant, human volunteers) was “did not cause any irritation”, the p24 concentrations (HIV-1; 1% zinc acetate 2 h, diluted 1:30 (60 μg/ml Zn), 20 days culture) was “indistinguishable from background levels” and the HIV infectivity (HIV-1; 1% zinc acetate 2 h, diluted 1:30 (60 μg/ml Zn)) was “completely eliminated”. The HIV infectivity (HIV-1; 1% zinc acetate 2 h, diluted 1:30 (60 μg/ml Zn), listed as ZnAc) was “completely abolished viral infectivity”, the HIV infectivity (HIV-1; 1% zinc acetate 2 h, diluted 1:100 (18 μg/ml Zn)) was “reduced and delayed” and the HIV infectivity (HIV-1; 1% zinc acetate 2 h, diluted 1:100 (18 μg/ml Zn), listed as ZnAc) was “suppressed and retarded HIV infectivity”. The “inhibition of HIV particles (summary of Examples 8-10)” value (HIV-1; two-step incubation assay, FIGS. 1-4) was “inhibited or entirely inactivated the HIV particles”, the HIV infectivity (HIV [2]; 10×, 100×, 1000× diluted stocks, zinc/virus diluted 1:1000 (2.7 μg/ml Zn)) was “completely blocked infectivity” and the HIV infectivity (HIV [2]; diluted stocks, zinc/virus diluted 1:100 (27 μg/ml Zn)) was “viral infectivity was completely blocked”. The HIV infectivity (HIV [2]; diluted viral stocks, 1.5% zinc acetate 2 h) was “completely eliminated”, the HIV infectivity (HIV [2]; diluted viral stocks, 1.5% zinc acetate 2 h, listed as ZnAc) was “completely eliminated the infectivity” and the “HIV infectivity (FIG. 4)” value (HIV [2]; high-titer stocks, various concentrations of zinc acetate) was “either eliminated or suppressed”. The HIV infectivity (HIV [2]; undiluted stock, zinc/virus diluted 1:100 (27 μg/ml Zn), 27 days) was “completely prevented infectivity”, the HIV infectivity (HIV [2]; undiluted stock, zinc/virus diluted 1:1000 (2.7 μg/ml Zn), 27 days) was “delayed the onset of infection” and the “virus precipitation” value (HIV [3]) was “substantial precipitation of the virus”. For the same substance, the “solubility in cell culture medium / water” value (20 mg in 1 ml RPMI culture medium containing protein) was “generated a precipitate in the culture medium”, the “solubility in water” value (general statement) was “highly soluble in water” and the “solubility in water” value (salt in a few drops of distilled water, room temperature) was “dissolved completely”. For the same substance, the ionization rate ([4]; in aqueous solution) was no more than 30%, the “Reported pK values” ([4]; in water, values below 2 refer to release of a single carboxy anion) was 1.03 and the MCC (several cell lines) was roughly 100 mM. The “pH of solution (rounded)” value [5] was “about 6.2” and the pH of solution ([5]; 0.05 subtracted from meter reading, approximately accurate) was 6.27.
